In patent US20120020915A1, “Compounds and Methods for Treating Cancer and Diseases of the Central Nervous System” (QUEENS UNIVERSITY AT KINGSTON, priority 2007, published 2012):
Structures can show the parent of a compound that is named as a salt. Where two headings read alike, the source gives them in different places.

Key:
[1] = molecular target: T1, HO-2 (rat brain) (Rattus norvegicus, UniProt P23711); assay: HO enzymatic activity, rat brain microsomal fraction (CO formation from methemalbumin); format: biochemical
T1 construct: brain microsomes were used as a source of HO-2; from tissue; host or cells: brain microsomal fraction of adult male Sprague-Dawley rats
T1 sequence (P23711 1-315): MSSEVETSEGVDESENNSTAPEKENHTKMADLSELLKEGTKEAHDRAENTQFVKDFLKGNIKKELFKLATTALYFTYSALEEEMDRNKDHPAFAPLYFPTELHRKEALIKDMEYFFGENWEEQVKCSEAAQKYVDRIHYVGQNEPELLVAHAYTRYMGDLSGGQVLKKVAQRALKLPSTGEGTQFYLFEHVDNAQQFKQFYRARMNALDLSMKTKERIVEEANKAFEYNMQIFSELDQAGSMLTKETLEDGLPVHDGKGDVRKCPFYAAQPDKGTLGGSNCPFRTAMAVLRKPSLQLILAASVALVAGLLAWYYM
Protocol: (§1) Incubations for HO activity analysis were done under conditions for which the rate of CO formation (pmol CO×min^−1×mg protein^−1) was linear with respect to time and microsomal protein concentration. Briefly, reaction mixtures (150 μL) consisting of 100 mM phosphate buffer (pH 7.4), 50 μM methemalbumin, and 1 mg/mL protein were pre-incubated with the inhibitors at final concentrations ranging from 0.1-100 μM for 10 minutes at 37° C. Reactions were initiated by adding NADPH at a final concentration of 1 mM and incubations were performed for an additional 15 minutes at 37° C.
(§2) Incubations for HO activity analysis were done under conditions for which the rate of CO formation (pmol CO/mg protein/minute) was linear with respect to time and microsomal protein concentration. Briefly, reaction mixtures (150 μL) consisting of 100 mM phosphate buffer (pH 7.4), 50 μM methemalbumin and 1 mg/mL protein were pre-incubated with the vehicle (ethanol or water in which the inhibitors were dissolved), or inhibitors at final concentrations ranging from 0.1-1000 μM for 10 minutes at 37° C. Reactions were initiated by adding β-NADPH at a final concentration of 1 mM and incubations were carried out for an additional 15 minutes at 37° C. Reactions were stopped by instantly freezing the reaction mixture on pulverized dry ice and CO formation was measured by gas chromatography using a TA 3000R Process Gas Analyzer (Trace Analytical/Ametek, Newark, Del., USA).
(§3) The values on the abscissa represent the decimal logarithm of the inhibitor's concentration (in μM), whereas the values of the activity on the ordinate are expressed as a percentage of the control experiments without inhibitor.
(§4) The IC50 values for the replicate experiments were employed to generate the reported standard deviation value.

[2] = molecular target: T2, HO-1 (rat spleen) (Rattus norvegicus, UniProt P06762); assay: HO enzymatic activity, rat spleen microsomal fraction (CO formation from methemalbumin); format: biochemical
T2 construct: Spleen microsomes were used as a source of HO-1; from tissue; host or cells: spleen microsomal fraction of adult male Sprague-Dawley rats
T2 sequence (P06762 1-289): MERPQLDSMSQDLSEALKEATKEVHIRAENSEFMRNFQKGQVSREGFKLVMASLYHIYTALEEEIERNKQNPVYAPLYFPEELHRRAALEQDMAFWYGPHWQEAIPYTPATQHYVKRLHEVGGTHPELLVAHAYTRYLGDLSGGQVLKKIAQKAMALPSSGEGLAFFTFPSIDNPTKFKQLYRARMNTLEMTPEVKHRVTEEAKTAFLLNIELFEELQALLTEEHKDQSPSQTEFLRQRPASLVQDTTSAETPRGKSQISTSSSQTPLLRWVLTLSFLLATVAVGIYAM
Protocol: as §1, §2, §3, §4

[3] = IC50 HO-2 (rat brain)/μM), CO formation from methemalbumin, mean ± SD of replicate experiments
[4] = CO formation from methemalbumin, mean ± SD of replicate experiments, read-out: IC50 HO-1 (rat spleen/μM)
[5] = IC50 HO-1 (rat spleen/μM), CO formation from methemalbumin, mean ± SD of replicate experiments
[6] = average ± SD of replicate experiments, read-out: IC50 HO-2 (rat brain)/μM)
[7] = average ± SD of replicate experiments, read-out: IC50 HO-1 (rat spleen/μM)
[8] = CO formation from methemalbumin, mean ± SD of replicate experiments, read-out: IC50 HO-2 (rat brain)/μM)
[9] = IC50 HO-2 (rat brain)/μM), average ± SD of replicate experiments
[10] = IC50 HO-1 (rat spleen/μM), average ± SD of replicate experiments

Q: Which IC50 [1, 3] does the source give for `Cl.OC(CCc1ccccc1)Cn1ccnc1` (racemic) [QC-76, (±)-1-(1H-imidazol-1-yl)-4-phenyl-2-butanol hydrochloride] here?
A: 16 ± 8 µM

Q: And the melting point?
A: 56 to 57 °C

Q: And the IC50 [2, 4]?
A: 6 ± 1 µM

Q: Which results are given for `Cl.OC(CCc1ccc(Br)cc1)Cn1ccnc1` (racemic) [QC-79, (±)-4-(4-Bromophenyl)-1-(1H-imidazol-1-yl)-2-butanol hydrochloride]?
A: IC50 [1, 3]: 2.6 ± 0.5 µM; melting point: 174 to 175 °C; IC50 [2, 4]: 0.1 ± 0.1 µM

Q: For `Cl.OC(CCc1ccc(I)cc1)Cn1ccnc1` (racemic) [QC-74, (±)-1-(1H-Imidazol-1-yl)-4-(4-iodophenyl)-2-butanol hydrochloride], which IC50 [1, 3] is on record?
A: 2 ± 1 µM

Q: And the melting point?
A: 196 to 197 °C

Q: Which melting point does the source give for `Cl.Ic1ccc(CCC2(Cn3ccnc3)OCCO2)cc1` [QC-78, 1-((2-(2-(4-Iodophenyl)ethyl)-1,3-dioxolan-2-yl)methyl)-1H-imidazole hydrochloride] here?
A: 241 to 243 °C (dec.)

Q: And the IC50 [2, 5]?
A: 4 ± 1 µM

Q: For `COc1ccc(OCC2CO[C@@](CCc3ccc(Cl)cc3)(Cn3ccnc3)O2)cc1.Cl` (stereo in doubt) [QC-132, (2R,4S)-1-[2-[2-(4-Chlorophenyl)ethyl]-4-(4-methoxyphenoxymethyl)-[1,3]dioxolan-2-ylmethyl]-1H-imidazole hydrochloride], which melting point is on record?
A: 128 to 129 °C

Q: With `Cl.Clc1ccc(CCCCn2ccnc2)cc1` [QC-105, 1-[4-(4-chlorophenyl)butyl]-1H-imidazole hydrochloride] as the molecule, how does the melting point read?
A: 121 to 122 °C

Q: What about the IC50 [2, 4] of the same molecule?
A: 0.5 ± 0.3 µM

Q: With `Cl.FC(F)(F)c1ccc(CCCCn2ccnc2)cc1` as the molecule, how does the melting point read?
A: 110 to 111 °C

Q: What does the source list for `CS(=O)(=O)c1ncnn1CC(=O)CCc1ccccc1` [QC-156, 1-(5-Methanesulfonyl-[1,2,4]triazol-1-yl)-4-phenyl-butan-2-one]?
A: IC50 [1, 6]: > 100 µM; IC50 [2, 7]: > 100 µM

Q: With `O=C(CCc1ccc(O)cc1)Cn1ccnc1` [QC-206, 4-(4-Hydroxyphenyl)-1-(1H-imidazol-1-yl)butan-2-one hydrochloride] as the molecule, how does the IC50 [1, 6] read?
A: 251 µM

Q: And the IC50 [2, 7]?
A: 382 µM

Q: For `O=C(CCc1ccccc1)Cn1cnc2ccccc21` [QC-128, 1-Benzoimidazol-1-yl-4-phenyl-butan-2-one], which IC50 [1, 8] is on record?
A: > 100 µM

Q: And the IC50 [2, 4]?
A: > 100 µM

Q: With `Fc1ccc(COC(CCc2ccc(Cl)cc2)Cn2ccnc2)cc1` (stereo not shown) [QC-37, 4-(4-Chlorophenyl)-2-(4-fluorobenzyloxy)-1-(1H-imidazol-1-yl)butane hydrochloride] as the molecule, how does the IC50 [1, 8] read?
A: 1 ± 0.01 µM

Q: What about the IC50 [2, 4] of the same molecule?
A: 0.9 ± 0.3 µM

Q: Which IC50 [1, 9] does the source give for `O=C(CCc1ccccc1)Cn1ccnc1[N+](=O)[O-]` [QC-160, 1-(2-Nitro-imidazol-1-yl)-4-phenyl-butan-2-one hydrochloride] here?
A: > 100 µM

Q: What about the IC50 [2, 10] of the same molecule?
A: > 100 µM

Q: With `Cl.Clc1ccc(CC[C@@]2(Cn3ccnc3)OC[C@@H](CSc3ccc4ccccc4c3)O2)cc1` [QC-121, (2R,4S)-1-[2-[2-(4-Chlorophenyl)ethyl]-4-(naphthalen-2-ylsulfanylmethyl)-[1,3]dioxolan-2-ylmethyl]-1H-imidazole hydrochloride] as the molecule, how does the melting point read?
A: 156 to 157 °C

Q: Which IC50 [1, 8] does the source give for `Oc1ccc(OC[C@H]2CO[C@@](CCc3ccc(Cl)cc3)(Cn3ccnc3)O2)cc1` [QC-46, (2R,4S)-4-{2-[2-(4-Chlorophenyl)ethyl]-2-imidazol-1-ylmethyl-[1,3]dioxolan-4-ylmethoxy}phenol hydrochloride] here?
A: 7.1 ± 0.7 µM

Q: What about the IC50 [2, 4] of the same molecule?
A: 1.8 ± 0.5 µM

Q: Which results are given for `O=C(Cn1cncn1)c1ccccc1` [QC-157, 1-Phenyl-2-[1,2,4]triazol-1-yl-ethanone hydrochloride]?
A: IC50 [1, 9]: > 100 µM; IC50 [2, 10]: 12 ± 0.9 µM

Q: With `c1ccc(CCC2(Cn3cccn3)OCCO2)cc1` [QC-95, 2-phenylethyl-2-[(1H-pyrazole-1-yl)methyl]-1,3-dioxolane hydrochloride] as the molecule, how does the IC50 [1, 8] read?
A: > 100 µM

Q: What about the IC50 [2, 4] of the same molecule?
A: > 100 µM

Q: With `N#Cc1ncn(CC(=O)CCc2ccccc2)c1C#N` [QC-154, 1-(2-Oxo-4-phenylbutyl)-1H-imidazole-4,5-dicarbonitrile hydrochloride] as the molecule, how does the IC50 [1, 9] read?
A: > 100 µM

Q: What about the IC50 [2, 10] of the same molecule?
A: > 100 µM

Q: With `Cc1ccc(S(=O)(=O)OC[C@H]2CO[C@@](CCc3ccc(Cl)cc3)(Cn3ccnc3)O2)cc1` [QC-21, (2R,4R)-2-[2-(4-chlorophenyl)ethyl]-2-[(1H-imidazol-1-yl)methyl]-4-[(p-toluenesulfonyloxy)methyl]-1,3-dioxolane] as the molecule, how does the IC50 [1, 3] read?
A: 23 ± 10 µM

Q: And the IC50 [2, 5]?
A: 0.8 ± 0.3 µM

Q: What does the source list for `CCCC(=O)n1ccnc1` [QC-100, N-butyrylimidazole]?
A: IC50 [1, 8]: > 100 µM; IC50 [2, 4]: > 100 µM

Q: With `c1ccc2[nH]c(NC3CCC(c4cnc[nH]4)CC3)nc2c1` (stereo not shown) [QC-149, (1H-Benzoimidazol-2-yl)-[4-(3H-imidazol-4-yl)-cyclohexyl]-amine dihydrochloride] as the molecule, how does the IC50 [1, 6] read?
A: > 200 µM

Q: And the IC50 [2, 7]?
A: > 200 µM

Q: Which results are given for `O=C(Cn1ccnc1)NCc1ccccc1` [QC-63, N-benzyl-2-(1H-imidazol-1-yl)-acetamide hydrochloride]?
A: IC50 [1, 3]: > 100 µM; IC50 [2, 4]: 12 ± 5 µM

Q: With `NC[C@@H]1CO[C@@](CCc2ccccc2)(Cn2ccnc2)O1` [QC-190, {2-[2-(phenyl)-ethyl]-2-imidazol-1-ylmethyl-[1,3]dioxolan-4-yl}-methylamine dihydrochloride] as the molecule, how does the IC50 [1, 6] read?
A: > 100 µM

Q: And the IC50 [2, 7]?
A: 21 ± 3 µM

Q: Which results are given for `O=C(Cn1ccnc1)c1ccc(Br)cc1` [QC-161, 1-(4-Bromophenyl)-2-imidazol-1-yl-ethanone hydrochloride]?
A: IC50 [1, 9]: 14 ± 2 µM; IC50 [2, 10]: 3.2 ± 0.8 µM

Q: What does the source list for `COC(=O)c1cncn1CC(=O)CCc1ccccc1` [QC-134, 3-(2-Oxo-4-phenyl-butyl)-3H-imidazole-4-carboxylic acid methyl ester]?
A: IC50 [1, 8]: > 100 µM; IC50 [2, 4]: 55 ± 2 µM

Q: With `O=C(Cn1ccnc1)c1ccc(Cl)cc1` [QC-142, 1-(4-Chlorophenyl)-2-imidazol-1-yl-ethanone hydrochloride] as the molecule, how does the IC50 [1, 9] read?
A: 20 ± 8 µM

Q: What about the IC50 [2, 10] of the same molecule?
A: 4 ± 2 µM

Q: With `CCOC(=O)c1nccn1CC(=O)CCc1ccccc1` [QC-110, 1-(2-Oxo-4-phenyl-butyl)-1H-imidazole-2-carboxylic acid ethyl ester hydrochloride] as the molecule, how does the IC50 [1, 3] read?
A: > 100 µM

Q: What about the IC50 [2, 5] of the same molecule?
A: > 100 µM

Q: For `Nc1cccc(SC[C@@H]2CO[C@](CCc3ccc(Cl)cc3)(Cn3ccnc3)O2)c1` [QC-7, (2S,4S)-2-[2-(4-chlorophenyl)ethyl]-2-[(1H-imidazol-1-yl)methyl]-4-[{(3-aminophenyl)thio}methyl]-1,3-dioxolane dihydrochloride], which IC50 [1, 3] is on record?
A: 21 ± 1 µM

Q: And the IC50 [2, 5]?
A: 1.5 ± 0.1 µM

Q: For `O=C(CCc1ccccc1)Cn1cnc([N+](=O)[O-])c1` [QC-127, 1-(4-Nitro-imidazol-1-yl)-4-phenyl-butan-2-one], which IC50 [1, 8] is on record?
A: > 100 µM

Q: And the IC50 [2, 4]?
A: > 100 µM

Q: For `CS(=O)(=O)c1nccn1CC(=O)CCc1ccccc1` [QC-125, 1-(2-Methanesulfonyl-imidazol-1-yl)-4-phenyl-butan-2-one], which IC50 [1, 8] is on record?
A: > 100 µM

Q: And the IC50 [2, 4]?
A: > 100 µM

Q: With `Cc1ncc[nH]1` [QC-45, 2-methylimidazole, reference compound] as the molecule, how does the IC50 [1, 8] read?
A: > 100 µM

Q: And the IC50 [2, 4]?
A: > 100 µM

Q: Which melting point does the source give for `Cl.Clc1ccc(CC[C@@]2(Cn3ccnc3)OC[C@@H](COc3ccc(-c4ccccc4)cc3)O2)cc1` [QC-129] here?
A: 162 to 163 °C

Q: Which results are given for `CN(C)CCC(=O)c1ccc(Cl)cc1` [QC-84, 1-(4-chlorophenyl)-3-dimethylamino-propan-1-one]?
A: IC50 [1, 3]: > 100 µM; IC50 [2, 5]: > 100 µM

Q: Which IC50 [1, 3] does the source give for `Cc1ccc(S(=O)(=O)OC[C@@H]2CO[C@](CCc3ccc(Cl)cc3)(Cn3ccnc3)O2)cc1` [QC-6, (2S,4S)-2-[2-(4-chlorophenyl)ethyl]-2-[(1H-imidazol-1-yl)methyl]-4-[(p-toluenesulfonyloxy)methyl]-1,3-dioxolane] here?
A: 23 ± 6 µM

Q: What about the IC50 [2, 5] of the same molecule?
A: 21 ± 2 µM
